Test system: HT-1080 (ATCC, CCL-121) cells
Assay: HT-1080 cell viability assay with ferroptosis inducer RSL3 (Cell Titer-Glo)
Assay type: cell-based
Settings: Homo sapiens; HT-1080 cells treated with RSL3; 3-fold, 10-point dilution, 1.1 μM highest concentration; Table 2; read-out: EC50 (nM), ferroptosis inhibitory activity
Method: Example 2. Determination of EC50 Values in HT-1080 Cell Viability Assay
HT-1080 (ATCC, CCL-121) cells (6000 in 100 μl) were seeded in 96-well plates (Corning) and cultured in a 37° C. incubator with a humidified atmosphere of 5% CO2 for overnight. Cells were then treated with ferroptosis inducer RSL3 (TargetMol) and a 3-fold, 10-point serial dilution series of compounds with 1.1 μM as the highest concentration, […]. Cell viability was assessed using the Cell Titer-Glo Kit (Promega). The luminescence intensity was measured with a microplate reader (Envision, PerkinElmer), and cell viability was calculated by normalizing the data to untreated controls. The EC50 values of the compounds (e.g., Compounds 1-659) were calculated in GraphPad Prism (GraphPad Software, Inc., San Diego, CA, USA). The curves were fitted using a non-linear regression model with a sigmoidal dose response.

`O=C1c2ccc(Nc3ccc(N4CCC(C(F)(F)F)CC4)cc3)cc2CN1C1CCOCC1` [Compound 258, 2-(tetrahydro-2H-pyran-4-yl)-5-((4-(4-(trifluoromethyl)piperidin-1-yl)phenyl)amino)isoindolin-1-one] and `C/N=C1\c2ccc(Nc3ccc(N4CCC(C(F)(F)F)CC4)cc3)cc2CN1C` [Compound 313, 2-methyl-1-(methylimino)-N-(4-(4-(trifluoromethyl)piperidin-1-yl)phenyl)isoindolin-5-amine] fall in the same range of EC50: 0.1 to 100 nM for the first, 0.1 to 100 nM for the second.

`CNCCn1c(=O)n(C)c2cc(Nc3ccc(N4CC(C)OC(C)C4)cc3)ccc21` (stereo not drawn) [Compound 436, 5-((4-(2,6-dimethylmorpholino)phenyl)amino)-3-methyl-1-(2-(methylamino)ethyl)-1H-benzo[d]imidazol-2(3H)-one] and `CC1CN(c2ccc(Nc3ccc4oc(=O)[nH]c4c3)cc2)CC(C)O1` (stereo not drawn) [Compound 441, 5-((4-(2,6-dimethylmorpholino)phenyl)amino)benzo[d]oxazol-2(3H)-one] fall in the same range of EC50: 0.1 to 100 nM for the first, 0.1 to 100 nM for the second.

`Cn1c(=O)n(C)c2cc(Nc3ccc(N4CCC(C(F)(F)F)CC4)nc3)ccc21` [Compound 362, 1,3-dimethyl-5-((6-(4-(trifluoromethyl)piperidin-1-yl)pyridin-3-yl)amino)-1,3-dihydro-2H-benzo[d]imidazol-2-one] and `Cn1c(=N)n(C)c2cc(Nc3ccc(N4CCC(C(F)(F)F)CC4)cc3)ccc21` [Compound 302, 2-imino-1,3-dimethyl-N-(4-(4-(trifluoromethyl)piperidin-1-yl)phenyl)-2,3-dihydro-1H-benzo[d]imidazol-5-amine] fall in the same range of EC50: 0.1 to 100 nM for the first, 0.1 to 100 nM for the second.

`Cc1cc(N2CC(C)OC(C)C2)ccc1Nc1ccc2oc(=O)n(C)c2c1` (stereo not drawn) [Compound 446, 5-((4-(2,6-dimethylmorpholino)-2-methylphenyl)amino)-3-methylbenzo[d]oxazol-2(3H)-one] and `Cc1cc(N2CC(C)OC(C)C2)ccc1Nc1ccc2nn(C)cc2c1` (stereo not drawn) [Compound 445, N-(4-(2,6-dimethylmorpholino)-2-methylphenyl)-2-methyl-2H-indazol-5-amine] fall in the same range of EC50: 0.1 to 100 nM for the first, 0.1 to 100 nM for the second.

`Cn1c(=O)oc2ccc(Nc3cnc(N4CCC(C(F)(F)F)CC4)c(F)c3)cc21` [Compound 388, 5-((5-fluoro-6-(4-(trifluoromethyl)piperidin-1-yl)pyridin-3-yl)amino)-3-methylbenzo[d]oxazol-2(3H)-one] and `Cn1c(=O)oc2ccc(Nc3ccc(N4CCC(CF)CC4)cc3)cc21` [Compound 391, 5-((4-(4-(fluoromethyl)piperidin-1-yl)phenyl)amino)-3-methylbenzo[d]oxazol-2(3H)-one] fall in the same range of EC50: 0.1 to 100 nM for the first, 0.1 to 100 nM for the second.

`CN1Cc2cc(Nc3ccc(N4CC5(CCCC5)C4)cc3)ccc2C1=O` [Compound 246, 5-((4-(2-azaspiro[3.4]octan-2-yl)phenyl)amino)-2-methylisoindolin-1-one] and `Cn1c(=O)oc2cc(Nc3ccc(N4CC(C)(C)C4)cc3)ccc21` [Compound 324, 6-((4-(3,3-dimethylazetidin-1-yl)phenyl)amino)-3-methylbenzo[d]oxazol-2(3H)-one] fall in the same range of EC50: 0.1 to 100 nM for the first, 0.1 to 100 nM for the second.

`Cn1c(=O)n(C)c2cc(Nc3ccccc3)ccc21` [Compound 382, 1,3-dimethyl-5-(phenylamino)-1,3-dihydro-2H-benzo[d]imidazol-2-one] and `COc1ccc(Nc2ccc3c(c2)n(C)c(=O)n3C)cn1` [Compound 320, 5-((6-methoxypyridin-3-yl)amino)-1,3-dimethyl-1,3-dihydro-2H-benzo[d] imidazol-2-one] fall in the same range of EC50: 0.1 to 100 nM for the first, 0.1 to 100 nM for the second.

Compared with `CCN1Cc2ccc(Nc3cnc(N4CCCCC4)c(F)c3)cc2C1` [Compound 195, 2-ethyl-N-(5-fluoro-6-(piperidin-1-yl)pyridin-3-yl)isoindolin-5-amine], `Cc1cc(Nc2ccc3c(c2)OCC(=O)N3)cnc1N1C[C@H](C)O[C@@H](C)C1` (stereo in doubt) [Compound 152, 7-((6-(2,6-dimethylmorpholino)-5-methylpyridin-3-yl)amino)-2H-benzo[b][1,4]oxazin-3(4H)-one] is higher in EC50: 0.1 to 100 nM for the first, 100 to 1000 nM for the second.

`COCCn1c(=O)n(C)c2ccc(Nc3ccc(N4CCC(C(F)(F)F)CC4)cc3)cc21` [Compound 334, 3-(2-methoxyethyl)-1-methyl-5-((4-(4-(trifluoromethyl)piperidin-1-yl)phenyl)amino)-1,3-dihydro-2H-benzo[d]imidazol-2-one] and `C/N=c1\n(C)c2ccc(Nc3ccc(N4CCC(C(F)(F)F)CC4)cc3)cc2n1C` [Compound 340, 1,3-dimethyl-2-(methylimino)-N-(4-(4-(trifluoromethyl)piperidin-1-yl)phenyl)-2,3-dihydro-1H-benzo[d]imidazol-5-amine] fall in the same range of EC50: 0.1 to 100 nM for the first, 0.1 to 100 nM for the second.

`Cc1cc(N2CCC(C(F)(F)F)CC2)cc(C)c1Nc1ccc2c(c1)OCC(=O)N2C` [Compound 79, 7-((2,6-dimethyl-4-(4-(trifluoromethyl)piperidin-1-yl)phenyl)amino)-4-methyl-2H-benzo[b][1,4]oxazin-3(4H)-one] and `COc1c(Nc2ccc(N3CCC(C(F)(F)F)CC3)cc2)ccc2c1CN(C)C2=O` [Compound 301, 4-methoxy-2-methyl-5-((4-(4-(trifluoromethyl)piperidin-1-yl)phenyl)amino)isoindolin-1-one] fall in the same range of EC50: 0.1 to 100 nM for the first, 0.1 to 100 nM for the second.

`CC1CN(c2ccc(Nc3ccc4c(c3)OC(C)C(=O)N4)cc2)CC(C)O1` (stereo not drawn) [Compound 139, 7-((4-(2,6-dimethylmorpholino)phenyl)amino)-2-methyl-2H-benzo[b][1,4]oxazin-3(4H)-one] and `CC1CN(c2c(F)cc(Nc3ccc4c(c3)OCC(=O)N4)cc2F)CC(C)O1` (stereo not drawn) [Compound 159, 7-((4-(2,6-dimethylmorpholino)-3,5-difluorophenyl)amino)-2H-benzo[b][1,4]oxazin-3(4H)-one] fall in the same range of EC50: 0.1 to 100 nM for the first, 0.1 to 100 nM for the second.

Compared with `CCCCCc1ccc(Nc2ccc3c(c2)OCC(=O)N3C)cc1` [Compound 6, 4-methyl-7-((4-pentylphenyl)amino)-2H-benzo[b][1,4]oxazin-3(4H)-one], `Cn1c(=O)n(C)c2cc(Nc3ccc(-n4ccnc4)cc3)ccc21` [Compound 305, 5-((4-(1H-imidazol-1-yl)phenyl)amino)-1,3-dimethyl-1,3-dihydro-2H-benzo[d]imidazol-2-one] is higher in EC50: 0.1 to 100 nM for the first, 100 to 1000 nM for the second.

`FC(F)(F)C1CCN(c2ccc(Nc3ccc4occc4c3)cc2)CC1` [Compound 337, N-(4-(4-(trifluoromethyl)piperidin-1-yl)phenyl)benzofuran-5-amine] and `CC(C)(C)c1ccc(Nc2ccc3c(CCN)cc(=O)oc3c2)cc1` [Compound 121, 4-(2-aminoethyl)-7-((4-(tert-butyl)phenyl)amino)-2H-chromen-2-one] fall in the same range of EC50: 0.1 to 100 nM for the first, 0.1 to 100 nM for the second.

Same assay, conditions: Homo sapiens; HT-1080 cells treated with RSL3; 3-fold, 10-point dilution, 1.1 μM highest concentration; Table 3; read-out: EC50 (nM), ferroptosis inhibitory activity

`Cc1cc(N2CC(C)N(CC(F)(F)F)C(C)C2)ccc1Nc1ccc2c(c1)OCC(=O)N2` (stereo not drawn) [Compound 519, 7-((4-(3,5-dimethyl-4-(2,2,2-trifluoroethyl)piperazin-1-yl)-2-methylphenyl)amino)-2H-benzo[b][1,4]oxazin-3(4H)-one] and `Cc1cc(N2CCC(C(F)(F)F)C2)ccc1Nc1ccc2c(c1)OCCC(=O)N2` (stereo not drawn) [Compound 628, 8-((2-methyl-4-(3-(trifluoromethyl)pyrrolidin-1-yl)phenyl)amino)-2,3-dihydrobenzo[b][1,4]oxazepin-4(5H)-one] fall in the same range of EC50: 0.1 to 100 nM for the first, 0.1 to 100 nM for the second.

First: Cc1cc(N2CCC(C(F)(F)F)CC2)ccc1Nc1ccn2ccnc2c1 [Compound 606, N-(2-methyl-4-(4-(trifluoromethyl)piperidin-1-yl)phenyl) imidazo[1,2-a]pyridin-7-amine]
Second: Cc1cc(N2CCC(C(F)(F)F)CC2)ccc1Nc1ccc2[nH]c(=O)[nH]c2c1 [Compound 513, 5-((2-methyl-4-(4-(trifluoromethyl)piperidin-1-yl)phenyl)amino)-1,3-dihydro-2H-benzo[d]imidazol-2-one]
The EC50 of the first is higher: 100 to 1000 nM for the first, 0.1 to 100 nM for the second.

`CC1CN(c2ccc(Nc3ccc4c(c3)N(C)C(=O)C4(C)C)cc2)CC(C)O1` (stereo not drawn) [Compound 449, 6-((4-(2,6-dimethylmorpholino)phenyl)amino)-1,3,3-trimethylindolin-2-one] and `O=C1COc2cc(Nc3ccc(N4CCCCC4)cc3)ccc2N1` [Compound 517, 7-(4-(piperidin-1-yl)phenylamino)-2H-benzo[b][1,4]oxazin-3(4H)-one] fall in the same range of EC50: 0.1 to 100 nM for the first, 0.1 to 100 nM for the second.

`COC1(C(F)(F)F)CCN(c2ccc(Nc3ccc4c(c3)OCC(=O)N4)c(C)n2)CC1` [Compound 503, 7-((6-(4-methoxy-4-(trifluoromethyl)piperidin-1-yl)-2-methylpyridin-3-yl)amino)-2H-benzo[b][1,4]oxazin-3(4H)-one] and `COC1(C(F)(F)F)CCN(c2ccc(Nc3ccc4c(c3)OCCC(=O)N4)c(C)c2)C1` (stereo not drawn) [Compound 647, 8-((4-(3-methoxy-3-(trifluoromethyl)pyrrolidin-1-yl)-2-methylphenyl)amino)-2,3-dihydrobenzo[b][1,4]oxazepin-4(5H)-one] fall in the same range of EC50: 0.1 to 100 nM for the first, 0.1 to 100 nM for the second.

`CC1CCN(c2ccc(Nc3cnc4c(c3)OCC(=O)N4)cc2)CC1` [Compound 596, 7-((4-(4-methylpiperidin-1-yl)phenyl)amino)-2H-pyrido[3,2-b][1,4]oxazin-3(4H)-one] and `CC1CC(C(F)(F)F)CCN1c1ccc(Nc2ccc3c(c2)OCC(=O)N3)cc1` (stereo not drawn) [Compound 642, 7-((4-(2-methyl-4-(trifluoromethyl)piperidin-1-yl)phenyl)amino)-2H-benzo[b][1,4]oxazin-3(4H)-one] fall in the same range of EC50: 0.1 to 100 nM for the first, 0.1 to 100 nM for the second.
